The target of experiment [1] is T1, Ephrin type-A receptor 8 (Homo sapiens) (UniProt P29322).
T1 sequence (whole entry): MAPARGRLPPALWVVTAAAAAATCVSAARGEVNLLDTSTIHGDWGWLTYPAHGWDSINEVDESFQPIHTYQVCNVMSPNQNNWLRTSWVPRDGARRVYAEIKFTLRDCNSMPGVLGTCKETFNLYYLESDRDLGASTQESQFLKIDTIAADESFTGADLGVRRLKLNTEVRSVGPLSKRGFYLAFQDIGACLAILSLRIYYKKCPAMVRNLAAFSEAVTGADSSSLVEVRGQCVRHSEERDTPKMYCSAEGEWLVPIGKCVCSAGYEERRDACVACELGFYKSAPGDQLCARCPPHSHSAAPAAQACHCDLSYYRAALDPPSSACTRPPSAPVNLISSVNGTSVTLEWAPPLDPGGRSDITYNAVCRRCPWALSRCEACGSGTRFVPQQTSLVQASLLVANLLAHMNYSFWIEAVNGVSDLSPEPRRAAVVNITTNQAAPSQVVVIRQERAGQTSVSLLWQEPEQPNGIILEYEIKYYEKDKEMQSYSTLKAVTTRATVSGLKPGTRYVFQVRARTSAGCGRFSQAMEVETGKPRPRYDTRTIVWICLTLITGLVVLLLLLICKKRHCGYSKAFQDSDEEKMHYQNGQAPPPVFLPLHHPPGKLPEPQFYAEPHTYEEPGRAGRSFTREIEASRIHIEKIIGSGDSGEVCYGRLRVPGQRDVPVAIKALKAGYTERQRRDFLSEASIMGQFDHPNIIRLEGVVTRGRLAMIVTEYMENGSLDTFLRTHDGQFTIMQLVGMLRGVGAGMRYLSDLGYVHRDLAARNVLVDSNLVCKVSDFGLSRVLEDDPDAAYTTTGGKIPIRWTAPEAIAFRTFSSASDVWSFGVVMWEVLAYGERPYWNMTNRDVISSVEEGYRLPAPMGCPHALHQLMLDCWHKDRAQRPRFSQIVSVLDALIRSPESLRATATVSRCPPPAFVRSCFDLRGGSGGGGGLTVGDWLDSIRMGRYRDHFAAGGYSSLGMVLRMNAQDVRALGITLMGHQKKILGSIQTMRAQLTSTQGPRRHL
To be noted: Compound concentration 1000.0 nM.

In experiment [2] the target is Tyrosine-protein kinase Lyn (Homo sapiens) (UniProt P07948). To be noted: Compound concentration 1000.0 nM.
Experiment [3] addresses Dual serine/threonine and tyrosine protein kinase (Homo sapiens) (UniProt Q6XUX3). The conditions noted are these: Compound concentration 1000.0 nM.
Experiment [4] concerns the target Serine/threonine-protein kinase pim-3 (Homo sapiens) (UniProt Q86V86). To be noted: Compound concentration 1000.0 nM.
Experiment [5] deals with Mitogen-activated protein kinase kinase kinase 4 (Homo sapiens) (UniProt Q9Y6R4). The conditions noted are these: Compound concentration 1000.0 nM.
Experiment [6] relates to Mast/stem cell growth factor receptor Kit (Homo sapiens), P10721 [A829P]. The conditions noted are these: Compound concentration 1000.0 nM.
In experiment [7] the target is Macrophage colony-stimulating factor 1 receptor (Homo sapiens) (UniProt P07333). To be noted: Compound concentration 1000.0 nM.
In experiment [8] the target is T2, Myosin-IIIb (Homo sapiens) (UniProt Q8WXR4).
T2 sequence (whole entry): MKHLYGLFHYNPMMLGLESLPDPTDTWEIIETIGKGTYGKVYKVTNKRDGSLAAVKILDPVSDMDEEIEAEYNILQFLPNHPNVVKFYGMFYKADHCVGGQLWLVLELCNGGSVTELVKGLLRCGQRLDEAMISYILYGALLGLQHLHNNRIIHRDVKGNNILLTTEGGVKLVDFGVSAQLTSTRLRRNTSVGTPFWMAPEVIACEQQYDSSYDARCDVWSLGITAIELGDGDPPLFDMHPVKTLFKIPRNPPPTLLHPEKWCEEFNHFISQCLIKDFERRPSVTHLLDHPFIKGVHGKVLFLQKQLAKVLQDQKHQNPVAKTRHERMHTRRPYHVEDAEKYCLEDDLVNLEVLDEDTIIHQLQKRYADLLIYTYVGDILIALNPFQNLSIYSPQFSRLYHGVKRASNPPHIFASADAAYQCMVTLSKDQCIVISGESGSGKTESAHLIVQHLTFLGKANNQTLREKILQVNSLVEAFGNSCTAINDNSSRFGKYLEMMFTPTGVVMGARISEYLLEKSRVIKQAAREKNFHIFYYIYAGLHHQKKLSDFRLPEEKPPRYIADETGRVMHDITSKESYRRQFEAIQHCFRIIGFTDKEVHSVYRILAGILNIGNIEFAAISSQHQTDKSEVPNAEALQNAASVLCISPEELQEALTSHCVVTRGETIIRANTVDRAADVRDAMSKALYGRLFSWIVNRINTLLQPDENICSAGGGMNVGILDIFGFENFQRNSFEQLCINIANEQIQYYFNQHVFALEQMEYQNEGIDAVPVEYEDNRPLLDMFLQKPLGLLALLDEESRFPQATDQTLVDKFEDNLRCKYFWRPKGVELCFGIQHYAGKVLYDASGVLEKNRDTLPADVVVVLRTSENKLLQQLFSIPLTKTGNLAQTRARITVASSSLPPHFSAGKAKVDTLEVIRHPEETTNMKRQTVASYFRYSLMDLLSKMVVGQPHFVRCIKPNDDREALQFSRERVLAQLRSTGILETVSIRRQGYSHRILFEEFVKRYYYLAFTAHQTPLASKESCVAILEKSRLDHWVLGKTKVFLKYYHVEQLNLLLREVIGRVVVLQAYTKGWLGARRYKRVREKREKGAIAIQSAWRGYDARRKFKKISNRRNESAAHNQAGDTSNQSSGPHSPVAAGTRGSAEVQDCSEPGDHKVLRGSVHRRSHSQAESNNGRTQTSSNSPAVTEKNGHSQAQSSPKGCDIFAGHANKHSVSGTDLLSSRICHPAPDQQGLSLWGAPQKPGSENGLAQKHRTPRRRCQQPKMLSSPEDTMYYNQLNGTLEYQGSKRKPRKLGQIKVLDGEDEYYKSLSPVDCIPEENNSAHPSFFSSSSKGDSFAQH
To be noted: Compound concentration 1000.0 nM.

Experiment [9] concerns the target Homeodomain-interacting protein kinase 3 (Homo sapiens) (UniProt Q9H422). The conditions noted are these: Compound concentration 1000.0 nM.
The target in experiment [10] is Alpha-2C adrenergic receptor (Homo sapiens) (UniProt P18825). To be noted: Compound concentration 10.0 uM.
The target of experiment [11] is Serine/threonine-protein kinase 35 (Homo sapiens) (UniProt Q8TDR2). To be noted: Compound concentration 1000.0 nM.
Experiment [12] concerns the target Ephrin type-B receptor 6 (Homo sapiens) (UniProt O15197). To be noted: Compound concentration 1000.0 nM.

SMILES strings stand for the structures.

One may read the inhibition as the drop in the measured response relative to a control, in per cent.

Alpha-2C adrenergic receptor (Homo sapiens), sequence (P18825 whole entry): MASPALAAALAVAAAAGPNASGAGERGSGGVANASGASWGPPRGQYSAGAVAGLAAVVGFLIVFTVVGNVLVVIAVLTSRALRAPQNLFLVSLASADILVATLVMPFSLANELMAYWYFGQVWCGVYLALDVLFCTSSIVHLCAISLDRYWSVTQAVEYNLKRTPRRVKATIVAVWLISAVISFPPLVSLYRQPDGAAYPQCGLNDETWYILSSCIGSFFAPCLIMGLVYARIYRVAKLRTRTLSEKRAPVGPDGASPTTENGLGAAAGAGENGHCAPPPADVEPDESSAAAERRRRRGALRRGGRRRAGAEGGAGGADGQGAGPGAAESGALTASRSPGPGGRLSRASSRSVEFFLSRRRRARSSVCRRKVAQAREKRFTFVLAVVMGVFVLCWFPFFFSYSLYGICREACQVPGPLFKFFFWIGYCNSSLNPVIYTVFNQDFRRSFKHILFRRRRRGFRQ
Mitogen-activated protein kinase kinase kinase 4 (Homo sapiens), sequence (Q9Y6R4 whole entry): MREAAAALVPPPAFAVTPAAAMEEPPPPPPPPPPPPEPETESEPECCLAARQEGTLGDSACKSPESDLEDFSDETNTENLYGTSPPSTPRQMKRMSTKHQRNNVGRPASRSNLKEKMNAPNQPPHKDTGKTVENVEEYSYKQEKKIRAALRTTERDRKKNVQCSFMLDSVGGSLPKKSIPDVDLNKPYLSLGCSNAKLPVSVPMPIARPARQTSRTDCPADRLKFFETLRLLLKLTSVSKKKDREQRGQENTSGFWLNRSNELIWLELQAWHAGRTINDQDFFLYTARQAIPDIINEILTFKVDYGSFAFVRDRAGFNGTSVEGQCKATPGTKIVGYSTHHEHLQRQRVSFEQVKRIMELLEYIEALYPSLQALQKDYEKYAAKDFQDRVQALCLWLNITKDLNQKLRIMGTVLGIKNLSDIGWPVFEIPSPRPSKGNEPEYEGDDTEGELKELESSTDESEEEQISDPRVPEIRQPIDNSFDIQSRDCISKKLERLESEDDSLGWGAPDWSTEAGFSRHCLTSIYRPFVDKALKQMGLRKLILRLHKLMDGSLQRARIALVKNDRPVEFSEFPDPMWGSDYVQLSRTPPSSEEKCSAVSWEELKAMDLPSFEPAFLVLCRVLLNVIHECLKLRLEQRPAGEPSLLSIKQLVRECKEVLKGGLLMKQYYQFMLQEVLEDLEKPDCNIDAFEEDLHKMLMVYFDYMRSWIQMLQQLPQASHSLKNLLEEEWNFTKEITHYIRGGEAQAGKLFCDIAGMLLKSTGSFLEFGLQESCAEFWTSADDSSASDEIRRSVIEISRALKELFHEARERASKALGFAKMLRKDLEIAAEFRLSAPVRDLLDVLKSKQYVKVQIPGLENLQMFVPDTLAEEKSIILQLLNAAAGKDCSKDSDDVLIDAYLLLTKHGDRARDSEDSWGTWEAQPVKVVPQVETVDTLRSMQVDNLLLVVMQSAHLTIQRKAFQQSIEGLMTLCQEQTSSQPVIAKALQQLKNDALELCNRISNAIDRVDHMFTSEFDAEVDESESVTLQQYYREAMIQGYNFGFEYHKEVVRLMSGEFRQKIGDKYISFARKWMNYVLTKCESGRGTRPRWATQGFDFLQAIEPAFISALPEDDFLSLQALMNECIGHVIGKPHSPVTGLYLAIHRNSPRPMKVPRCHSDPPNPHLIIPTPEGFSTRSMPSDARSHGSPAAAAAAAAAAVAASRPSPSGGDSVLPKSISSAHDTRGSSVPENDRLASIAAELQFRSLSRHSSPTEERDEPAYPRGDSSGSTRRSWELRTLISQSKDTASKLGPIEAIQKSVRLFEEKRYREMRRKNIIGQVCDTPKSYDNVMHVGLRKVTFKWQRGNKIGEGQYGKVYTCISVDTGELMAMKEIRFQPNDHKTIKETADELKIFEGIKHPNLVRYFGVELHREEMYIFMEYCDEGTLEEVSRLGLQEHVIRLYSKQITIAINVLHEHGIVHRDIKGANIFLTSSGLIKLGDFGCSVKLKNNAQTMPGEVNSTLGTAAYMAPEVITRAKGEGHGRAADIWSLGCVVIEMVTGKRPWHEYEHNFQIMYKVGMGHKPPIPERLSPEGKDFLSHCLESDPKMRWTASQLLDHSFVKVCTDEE
Serine/threonine-protein kinase 35 (Homo sapiens), sequence (Q8TDR2 whole entry): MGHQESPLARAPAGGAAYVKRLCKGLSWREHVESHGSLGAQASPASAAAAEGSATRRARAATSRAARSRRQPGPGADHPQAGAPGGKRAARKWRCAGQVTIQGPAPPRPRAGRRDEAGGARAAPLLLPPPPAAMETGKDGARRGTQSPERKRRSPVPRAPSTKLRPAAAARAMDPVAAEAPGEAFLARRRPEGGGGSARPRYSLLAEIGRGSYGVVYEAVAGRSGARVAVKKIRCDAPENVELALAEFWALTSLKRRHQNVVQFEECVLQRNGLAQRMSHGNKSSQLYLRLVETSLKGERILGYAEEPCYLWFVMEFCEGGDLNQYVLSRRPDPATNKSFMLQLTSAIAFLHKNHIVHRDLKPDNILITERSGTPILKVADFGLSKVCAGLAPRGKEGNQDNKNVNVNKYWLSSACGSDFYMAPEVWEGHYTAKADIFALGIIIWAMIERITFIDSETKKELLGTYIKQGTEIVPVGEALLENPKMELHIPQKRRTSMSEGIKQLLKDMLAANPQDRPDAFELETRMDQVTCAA
Dual serine/threonine and tyrosine protein kinase (Homo sapiens), sequence (Q6XUX3 whole entry): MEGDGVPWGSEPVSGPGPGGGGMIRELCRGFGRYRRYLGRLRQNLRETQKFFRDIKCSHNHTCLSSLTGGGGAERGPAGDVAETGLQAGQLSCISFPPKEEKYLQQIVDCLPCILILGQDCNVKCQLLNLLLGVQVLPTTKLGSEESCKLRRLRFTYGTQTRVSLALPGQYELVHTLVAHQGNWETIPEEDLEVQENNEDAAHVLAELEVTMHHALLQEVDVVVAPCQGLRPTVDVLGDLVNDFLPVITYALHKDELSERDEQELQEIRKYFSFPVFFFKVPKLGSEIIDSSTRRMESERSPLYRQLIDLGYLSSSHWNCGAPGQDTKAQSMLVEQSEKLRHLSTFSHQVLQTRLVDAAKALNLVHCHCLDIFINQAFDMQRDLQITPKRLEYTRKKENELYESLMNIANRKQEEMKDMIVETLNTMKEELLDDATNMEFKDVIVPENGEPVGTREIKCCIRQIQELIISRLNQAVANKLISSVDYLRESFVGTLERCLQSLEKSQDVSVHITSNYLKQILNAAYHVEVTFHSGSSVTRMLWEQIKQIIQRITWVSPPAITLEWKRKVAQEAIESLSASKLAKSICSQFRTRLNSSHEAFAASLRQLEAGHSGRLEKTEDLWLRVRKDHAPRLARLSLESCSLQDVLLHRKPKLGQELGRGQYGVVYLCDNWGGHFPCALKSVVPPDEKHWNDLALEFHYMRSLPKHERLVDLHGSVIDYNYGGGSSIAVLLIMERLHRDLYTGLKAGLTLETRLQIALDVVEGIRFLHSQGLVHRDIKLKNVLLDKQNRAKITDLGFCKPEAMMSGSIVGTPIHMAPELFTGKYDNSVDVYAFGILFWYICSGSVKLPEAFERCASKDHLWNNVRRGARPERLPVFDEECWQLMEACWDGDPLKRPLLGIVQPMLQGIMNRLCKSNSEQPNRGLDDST
Ephrin type-B receptor 6 (Homo sapiens), sequence (O15197 whole entry): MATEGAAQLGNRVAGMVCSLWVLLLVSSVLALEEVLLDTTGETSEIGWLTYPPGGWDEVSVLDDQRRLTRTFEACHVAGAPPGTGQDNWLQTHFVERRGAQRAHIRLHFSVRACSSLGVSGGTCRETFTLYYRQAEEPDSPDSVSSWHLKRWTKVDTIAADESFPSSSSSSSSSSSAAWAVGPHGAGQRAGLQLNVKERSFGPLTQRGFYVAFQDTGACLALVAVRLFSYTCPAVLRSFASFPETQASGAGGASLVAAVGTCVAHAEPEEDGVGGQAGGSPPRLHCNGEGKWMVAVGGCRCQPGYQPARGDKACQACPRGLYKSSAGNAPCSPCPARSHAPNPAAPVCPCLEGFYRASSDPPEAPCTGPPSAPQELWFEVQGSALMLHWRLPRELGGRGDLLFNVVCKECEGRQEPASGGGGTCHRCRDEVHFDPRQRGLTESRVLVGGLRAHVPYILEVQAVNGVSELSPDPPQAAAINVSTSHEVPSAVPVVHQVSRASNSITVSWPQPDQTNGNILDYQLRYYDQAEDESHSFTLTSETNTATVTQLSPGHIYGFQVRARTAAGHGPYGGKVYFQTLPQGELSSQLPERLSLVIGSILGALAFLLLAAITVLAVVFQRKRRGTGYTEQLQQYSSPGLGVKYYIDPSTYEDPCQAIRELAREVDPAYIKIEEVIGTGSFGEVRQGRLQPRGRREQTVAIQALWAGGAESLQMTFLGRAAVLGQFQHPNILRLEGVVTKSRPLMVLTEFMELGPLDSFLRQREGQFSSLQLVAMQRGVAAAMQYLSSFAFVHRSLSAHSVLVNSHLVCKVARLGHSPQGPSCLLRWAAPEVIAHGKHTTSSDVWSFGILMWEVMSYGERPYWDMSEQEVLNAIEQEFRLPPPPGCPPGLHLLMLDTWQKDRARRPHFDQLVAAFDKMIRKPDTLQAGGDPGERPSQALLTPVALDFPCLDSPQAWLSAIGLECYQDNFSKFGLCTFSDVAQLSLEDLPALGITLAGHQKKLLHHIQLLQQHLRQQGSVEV

As for `Cc1nc(C2CCN(C(=O)c3ccc(OC(F)(F)F)cc3N)CC2)c2ncc(N3CCN(C)CC3)cc2n1` [BAY-693], the residual activity in experiment [1] was 98%; in [2], 100%; in [3], 95%; in experiment [4], 100%; in [5] it was 100%; in experiment [6] it was 86%. The residual activity in experiment [7] is 99%; in experiment [8] it was 71%; in experiment [9], 96%; in experiment [11] it was 100%; in [12] it was 100%. Moreover, in experiment [10], the inhibition is -6.01%.
`CN1CCN(c2cnc3c(C4CCN(C(=O)c5ccc(OC(F)(F)F)cc5N)CC4)ncnc3c2)CC1` [BAY-885]: the residual activity is 100% in experiment [1]; 75% in experiment [2]; 100% in experiment [3]; 100% in experiment [4]; 95% in experiment [5]; 100% in [6]. Further, the residual activity in experiment [7] is 100%; in experiment [8], 73%; in experiment [9], 100%; in experiment [11], 100%; in [12], 18%. The inhibition in experiment [10] was -2.34%.

For the origin of these results see ChEMBL document CHEMBL4507268 (2021).
